From ChEMBL document CHEMBL1201862, “PubChem BioAssay data set” (2004) come the findings set out here.

The structures appear in SMILES notation.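 Each compound was tested at five concentrations against cells in 96-well plates for 48 hours. GI50 is the concentration that inhibits growth by half.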 Activity calls are given as the source filed them. No stated cut-off is given here; in the data, active = GI50 up to about 1.1 µM and inactive = higher.

Test systems include A549; COLO 205; DLD-1; HOP-18; IGROV-1; M14; NCI-H522; SF-268; SF-539; SK-MEL-2; SNB-75; SNB-78; SR; TK-10; U-251; UACC-257; DU-145; Hs-578T; MDA-MB-231; T47D.
Common to all, as to assay: growth of human tumour cells (NCI), 48 h

On to `COC(C(=O)NCCCCNC(=O)C(OC)c1ccccc1)c1ccccc1` (centres undefined), for which the GI50 in the assay with A549, in the assay with COLO 205, in the assay with DLD-1, with HOP-18, with IGROV-1 and in the assay on M14 was > 100 µM (inactive) each time. Moreover, the GI50 in the assay with NCI-H522, with SF-268, in the assay on SF-539, with SK-MEL-2, in the assay with SNB-75 and with SNB-78 was > 100 µM (inactive) throughout. In addition, the GI50 in the assay on SR, in the assay on TK-10, in the assay on U-251 and in the assay with UACC-257 was > 100 µM (inactive) in each case.

`C=CC1(C)CC(=O)C2(O)C(C)(O1)C(OC(C)=O)C(O)C1C(C)(C)CCC(O)C12C` (centres undefined): the GI50 with A549 was > 150 µM (inactive); in the assay on COLO 205, 104 µM (inactive); with DLD-1 it was > 150 µM (inactive); in the assay with HOP-18 it was 41.3 µM (inactive); in the assay with IGROV-1, 47.3 µM (inactive); in the assay on M14, > 100 µM (inactive). Also, the GI50 with NCI-H522 is 132 µM (inactive); in the assay with SF-268 it was > 128 µM (inactive); with SF-539 it was 33.1 µM (inactive); with SK-MEL-2, > 143 µM (inactive); with SNB-75 it was 52 µM (inactive); in the assay with SNB-78 it was 5.4 µM (inactive). In addition, the GI50 in the assay on TK-10 was 1.45 µM (inactive); with U-251 it was 71 µM (inactive); in the assay on UACC-257 it was > 150 µM (inactive).

Take `Cc1ccccc1-c1c(N)nc(N)nc1C(=O)Nc1nccs1`: the GI50 in the assay on A549, in the assay with COLO 205, in the assay on DLD-1, in the assay with HOP-18, in the assay on IGROV-1 and in the assay with M14 was > 100 µM (inactive) each time. Further, the GI50 with NCI-H522, in the assay with SF-268, with SF-539, in the assay on SK-MEL-2, in the assay on SNB-75 and in the assay on SNB-78 was > 100 µM (inactive) in each case. Besides, the GI50 in the assay on SR, in the assay on TK-10, in the assay with U-251 and in the assay with UACC-257 was > 100 µM (inactive) each time.

Take `CCC(=O)OC[n+]1ccc2c(C)c3[nH]c4ccccc4c3c(C)c2c1`: the GI50 is 0.272 µM (active) with A549; 0.323 µM (active) with COLO 205; 0.229 µM (active) in the assay with DLD-1; < 0.01 µM (active) in the assay with HOP-18; 0.142 µM (active) in the assay on IGROV-1; 1.08 µM (active) with M14. Further, the GI50 in the assay on SF-268 is 0.552 µM (active); in the assay with SF-539 it was 0.478 µM (active); in the assay with SK-MEL-2, 1.03 µM (active); with SNB-75, 1.29 µM (inactive); with SNB-78, 1.29 µM (inactive); in the assay with SR it was 0.0423 µM (active). Moreover, the GI50 in the assay with TK-10 is 1.36 µM (inactive); in the assay on U-251 it was 0.397 µM (active); in the assay on UACC-257, 1.37 µM (inactive).

With `O=C(/C=C/c1ccccc1Cl)c1ccccc1Cl`, the GI50 was 30 µM (inactive) in the assay with A549; 21.4 µM (inactive) with COLO 205; 17.5 µM (inactive) with DLD-1; 28.1 µM (inactive) in the assay on HOP-18; 17.3 µM (inactive) in the assay on IGROV-1; 22.3 µM (inactive) in the assay on M14. Besides, the GI50 with NCI-H522 was 19 µM (inactive); in the assay on SF-268, 23.4 µM (inactive); in the assay with SF-539, 17.6 µM (inactive); with SNB-75, 30.3 µM (inactive); in the assay with SNB-78, 22.4 µM (inactive); in the assay on TK-10, 37.5 µM (inactive). Moreover, the results for the GI50 with U-251 and in the assay with UACC-257 were 16.3 µM (inactive) and 19.8 µM (inactive), respectively.

For `Nc1ncnc2c1ncn2CC(O)C(=O)O` (centres undefined), the GI50 was > 100 µM (inactive) with A549; > 100 µM (inactive) in the assay on COLO 205; > 100 µM (inactive) in the assay with DLD-1; > 100 µM (inactive) with DU-145; 71 µM (inactive) in the assay with HOP-18; > 100 µM (inactive) in the assay on Hs-578T. Moreover, the GI50 in the assay on IGROV-1, in the assay with M14, in the assay on MDA-MB-231, with NCI-H522, in the assay on SF-268 and in the assay on SF-539 was > 100 µM (inactive) throughout. In addition, the GI50 with SK-MEL-2, in the assay on SNB-75, in the assay on SR, in the assay on T47D, with TK-10 and in the assay with U-251 was > 100 µM (inactive) each time. Besides, in the assay with UACC-257, the GI50 is > 100 µM (inactive).

`C=CCNC1=NC(=O)C(CC(=O)Nc2ccc([N+](=O)[O-])cc2[N+](=O)[O-])S1` (centres undefined): the GI50 in the assay on A549, in the assay with COLO 205, in the assay on DLD-1, with HOP-18, in the assay on IGROV-1 and in the assay on M14 was > 100 µM (inactive) each time. Further, the GI50 with NCI-H522 is > 100 µM (inactive); with SF-268 it was > 100 µM (inactive); in the assay on SF-539, > 100 µM (inactive); in the assay on SK-MEL-2, > 100 µM (inactive); in the assay with SNB-75, 66.5 µM (inactive); with SNB-78, > 100 µM (inactive). The GI50 in the assay with TK-10 was 98.6 µM (inactive); in the assay on U-251, > 100 µM (inactive); in the assay with UACC-257, > 100 µM (inactive).

In the case of `CCCCCCCCCCCCCC(=O)O[C@H]1CC[C@H](NC(=O)[C@H](OC)[C@H](O)[C@@H](O)[C@H](O)/C=C/C(C)C)C(=O)NC1` [BENGAMIDE A], the GI50 was 0.00512 µM (active) in the assay with A549; 0.00512 µM (active) with COLO 205; 0.731 µM (active) with DU-145; > 10 µM (inactive) in the assay on HOP-18; 0.237 µM (active) with Hs-578T; 0.00708 µM (active) in the assay on IGROV-1. The GI50 in the assay on M14 was 0.00601 µM (active); with MDA-MB-231, 0.137 µM (active); with NCI-H522 it was 0.011 µM (active); in the assay with SF-268 it was 0.00893 µM (active); in the assay on SF-539, 0.0197 µM (active); in the assay on SK-MEL-2, 0.251 µM (active). Also, the GI50 in the assay with SNB-75 was 0.0353 µM (active); in the assay on SNB-78, > 10 µM (inactive); in the assay on SR, 0.0316 µM (active); in the assay on T47D it was 0.01 µM (active); with TK-10, 0.0726 µM (active); in the assay on U-251, 0.00705 µM (active). Besides, in the assay with UACC-257, the GI50 is 0.0205 µM (active).

Consider `C=CC(=O)N1C/C(=C\c2ccccc2)C(=O)/C(=C/c2ccccc2)C1`, for which the GI50 was 2.92 µM (inactive) in the assay with A549; 1.83 µM (inactive) in the assay with COLO 205; 0.458 µM (active) in the assay with DLD-1; 5.13 µM (inactive) in the assay on DU-145; 3.24 µM (inactive) in the assay on HOP-18; 1.97 µM (inactive) with IGROV-1. Moreover, the GI50 in the assay on M14 is 1.71 µM (inactive); in the assay with MDA-MB-231, 2 µM (inactive); with NCI-H522, 1.24 µM (inactive); with SF-268, 1.97 µM (inactive); in the assay with SF-539, 1.58 µM (inactive); in the assay with SK-MEL-2 it was 2.1 µM (inactive). Besides, the GI50 is 3.24 µM (inactive) in the assay on SNB-75; 0.476 µM (active) in the assay on SR; 3.75 µM (inactive) in the assay on T47D; 2.88 µM (inactive) in the assay on TK-10; 0.877 µM (active) with U-251; 1.92 µM (inactive) in the assay on UACC-257.

On to `COc1cc(/C=C\c2ccc(O)cc2)cc(OC)c1OC`, for which the GI50 in the assay on A549 was 6.1 µM (inactive); in the assay with COLO 205, 5.57 µM (inactive); in the assay on DLD-1 it was > 100 µM (inactive); with HOP-18, 22.3 µM (inactive); in the assay on IGROV-1, 5.24 µM (inactive); in the assay on M14, 22.2 µM (inactive). Moreover, the GI50 in the assay with NCI-H522 was 2.88 µM (inactive); in the assay on SF-268, 0.555 µM (active); in the assay with SF-539, 2.82 µM (inactive); in the assay on SK-MEL-2 it was 2.64 µM (inactive); with SNB-75, 3.94 µM (inactive); with SNB-78, 3.96 µM (inactive). Further, the GI50 with TK-10 was 18.2 µM (inactive); with U-251, 3.01 µM (inactive); with UACC-257, 17.3 µM (inactive).

For the compound `N#CC1C(C#N)C2(c3ccccc3)C(c3ccccc3)=NN(c3ccccc3)CC12` (centres undefined), the GI50 with A549, in the assay with DLD-1, with HOP-18, in the assay with IGROV-1, in the assay on M14 and with SF-539 was > 100 µM (inactive) each time. In addition, the GI50 in the assay on SK-MEL-2 was > 100 µM (inactive); in the assay on SNB-75 it was 36.4 µM (inactive); in the assay on SNB-78 it was > 100 µM (inactive); in the assay on SR, > 100 µM (inactive); in the assay on TK-10, > 100 µM (inactive); with U-251, > 100 µM (inactive). The GI50 in the assay with UACC-257 is > 100 µM (inactive).

For `CN(C)CCOc1cccc2c1C(=O)c1ccccc1C2=O`, the GI50 with A549 is 13.7 µM (inactive); in the assay on COLO 205 it was 4.38 µM (inactive); in the assay with DLD-1 it was 8.34 µM (inactive); in the assay on HOP-18, 16 µM (inactive); with IGROV-1, 16.5 µM (inactive); with M14, 13.5 µM (inactive). In addition, the GI50 was 6.52 µM (inactive) in the assay with NCI-H522; 9.79 µM (inactive) in the assay with SF-268; 10.4 µM (inactive) in the assay on SF-539; 14.2 µM (inactive) in the assay with SK-MEL-2; 14.9 µM (inactive) in the assay with SNB-75; 13.6 µM (inactive) in the assay on SNB-78. Further, the GI50 is 17.3 µM (inactive) in the assay with TK-10, 17.4 µM (inactive) with U-251 and 13.1 µM (inactive) in the assay with UACC-257.

For the compound `CC1(C)S[C@H](c2ccccc2C(=O)O)N[C@@H]1CC(=O)O`, the GI50 in the assay with A549, with COLO 205, in the assay on DLD-1, in the assay with HOP-18, with IGROV-1 and in the assay on M14 was > 100 µM (inactive) in each case. In addition, the GI50 in the assay on NCI-H522, with SF-268, with SF-539, in the assay with SNB-75, in the assay with SNB-78 and with SR was > 100 µM (inactive) throughout. Moreover, the GI50 in the assay with U-251 and in the assay on UACC-257 was > 100 µM (inactive) in each case.
